According to patent publication US10542753B2, “Compositions for improving budbreak and flowering” (Zelam Limited, priority 2015, dated 2020):

Key:
[1] = tested on: Gold3; experiment: Trial 5: sprayed trial after poor winter chill (Bay of Plenty); type: in vivo, Actinidia chinensis Planch. var. chinensis 'Zesy002'
Method: (§1) These 2014 sprayed trials were performed in the Bay of Plenty (Trial 5, five replicates, each a bay comprising two vines with ten assessment canes per rep, five on each side of the bay) and Hawkes Bay, NZ (Trial 6, four replicates, each a bay comprising four vines with twenty assessment canes per rep, five from each vine). HC (700 litres/Ha) and Examples 9 and 10 (800 litres/Ha) were sprayed on 16-Aug (37 DBNB, Trial 5) and 11-Aug (30 DBNB, Trial 6). FIG. 7 illustrates the progression of budbreak in Trial 5 and FIG. 8 illustrates the progression of budbreak in Trial 6.
(§2) Under current management practices Gold3 growers require at least about 1.8 single flowers per winter bud (SFWB) to achieve the recommended packout of 17,000 trays/Ha.

[2] = tested on: Gold3 kiwifruit; experiment: Trial 4: cane painting, budbreak and flowering; type: in vivo, Actinidia chinensis Planch. var. chinensis 'Zesy002'; parameters: Spread of BB / Advance in Midpoint / Reduction in Spread: unit not given here; conditions: for KFFS: king flowers per floral shoot; for KFWB: king flowers per winter bud; for Advance in Midpoint / Reduction in Spread: vs untreated
Method: This cane painting experiment was performed in a Bay of Plenty orchard in 2013 following a winter with poor chill in the key months of May and June. Low-medium vigour canes typical of the orchard were painted with either HC or Example 9 on 13-Aug and 20-Aug, 34 and 27 days before natural budbreak which occurred on 16-Sep. […] FIG. 5 illustrates the progression of budbreak and FIG. 6 illustrates the progress of flowering in Trial 4.

[3] = tested on: Hayward kiwifruit; experiment: Trial 1: cane painting, budbreak and flowering; type: in vivo, Actinidia deliciosa; conditions: for Spread of BB: spread = 4x standard deviation; for Advance in Midpoint / Reduction in Spread: vs untreated
Method: A cane painting experiment was performed in a Hayward kiwifruit orchard in the Bay of Plenty New Zealand in 2010 following a winter with average winter chill. Low-medium vigour canes of 1.6 m average length from 36 vines were tagged and either left untreated or painted with one of HC, Examples 1-4 and Comparative Example 1. The date of painting (6-Aug) was 56 days before natural budbreak (DBNB). Budbreak (BBCH stage 9) and flowering (BBCH stage 60) were determined based on the photographs published by Salinero et al., 2009, “Phenological growth stages of kiwifruit (Actinidia deliciosa ‘Hayward’)”, Scientia Horticulturae 121, 27-31, which is hereby incorporated by reference in its entirety. Graphed and tabulated data represent averages of the 36 replicates and are normalised based on the number of winter buds on each cane.
FIG. 1 illustrates the progression of budbreak in Trial 1. FIG. 2 illustrates the progression of flowering in Trial 1. The progress curves depicted in FIGS. 1 and 2 were fitted to a cumulative normal curve to calculate the midpoints of budbreak and flowering (the dates corresponding to a 50% response) and spread of response time (defined as 4× standard deviation) as summarised in Tables 1 and 2.

[4] = tested on: Gold3; experiment: Trial 6: sprayed trial after good winter chill (Hawkes Bay); type: in vivo, Actinidia chinensis Planch. var. chinensis 'Zesy002'
Method: as §1, §2

[5] = tested on: Hayward kiwifruit vines; experiment: Trial 2: cane painting, salicylic acid dose-response, budbreak; type: in vivo, Actinidia deliciosa
Method: A cane painting experiment was performed in 2012 in a Hayward kiwifruit orchard in Taranaki, New Zealand. Canes of 1.2 m average length from 33 vines were tagged and either left untreated or painted with one of HC, Examples 5-8 and Comparative Examples 2 and 3 on 9-Aug, 50 DBNB (28-Sep). Midpoints and spread were calculated for budbreak (Table 3) but there were insufficient data to perform the calculations for flowering. […] FIG. 3 illustrates the progression of budbreak in Trial 2. FIG. 4 illustrates the progress of flowering in Trial 2.

[6] = tested on: Granny Smith Apples; experiment: Trial 8: sprayed trees, budbreak, flowering and fruit set on fruiting spurs; type: in vivo
Method: Trial 8: Use on Granny Smith Apples was evaluated in New Plymouth, New Zealand following a poor winter chill in 2013. Treatments were applied on 9 Aug. 2013 at 200 L/Ha using a manual backpack sprayer in a replicated trial (4 replications of two tree plots).

[7] = tested on: Psa; experiment: Trial 3: whole-vine spray in Psa-infected orchard, Psa leaf spotting; type: in vivo, Hayward kiwifruit vines; conditions: for % Incidence: Psa leaf spotting
Excerpt: A trial in which whole Hayward kiwifruit vines were sprayed was established in the Bay of Plenty in 2013. There were twelve replicates and two sets of untreated vines. HC (700 litres/Ha) and the composition of Example 8 (800 litres/Ha) were applied on three dates using a boom sprayer designed to produce spray deposition typical of an orchard air blast sprayer. Of particular interest in this trial was the prevalence of Psa leaf spotting that became evident in late spring, particularly in the early HC-sprayed vines. Vines were assessed for Psa leaf spotting by rating 40 randomly selected leaves (10 on each side of the two leaders that made up each vine) on a 1-5 scale (Table 4).

[8] = Pahokee muck soil under varying agricultural practices; cited from earlier work
[9] = cited from earlier work
[10] = Trial 5, Bay of Plenty, poor winter chill

N#CN [HC, hydrogen cyanamide]
flower numbers (in words) [1, 10]: excessive flower numbers
frequency of double and triple flowers / laterals (in words) [1, 10]: nearly doubled
% Double flowers ([1]; in vivo): 14.4%
% Laterals ([1]; in vivo): 18.7%
% Triple flowers ([1]; in vivo): 4.3%
KFWB ([1]; king flowers per winter bud): 3.1
SFWB ([1]; single flowers per winter bud): 2.5
% Budbreak ([1]; sprayed 16-Aug (37 DBNB)): 56.9%
frequency of lateral flowers (doubles and triples) (in words) ([2]; Trial 4): increased the frequency of lateral flowers
king flowers per winter bud (KFWB) (in words) ([2]; Trial 4, vs untreated): large increases
KFFS ([2]; painted 27 DBNB (20-Aug)): 2.35
KFFS ([2]; painted 34 DBNB (13-Aug)): 2.90
KFWB ([2]; painted 27 DBNB (20-Aug)): 1.19
KFWB ([2]; painted 34 DBNB (13-Aug)): 1.48
% Budbreak ([2]; painted 27 DBNB (20-Aug)): 72.1%
% Deformed ([2]; painted 27 DBNB (20-Aug)): 0.2%
% Laterals ([2]; painted 27 DBNB (20-Aug)): 1.8%
Floral shoots ([2]; painted 27 DBNB (20-Aug)): 71%
Spread of BB ([2]; painted 27 DBNB (20-Aug)): 24
Advance in Midpoint ([2]; painted 27 DBNB (20-Aug)): 15
Reduction in Spread ([2]; painted 27 DBNB (20-Aug)): 17
% Budbreak ([2]; painted 34 DBNB (13-Aug)): 64.5%
% Deformed ([2]; painted 34 DBNB (13-Aug)): 1.7%
% Laterals ([2]; painted 34 DBNB (13-Aug)): 9.9%
Floral shoots ([2]; painted 34 DBNB (13-Aug)): 83%
Spread of BB ([2]; painted 34 DBNB (13-Aug)): 12
Advance in Midpoint ([2]; painted 34 DBNB (13-Aug)): 19
Reduction in Spread ([2]; painted 34 DBNB (13-Aug)): 30
Spread of BB ([3]; Table 2, flowering): 7
Advance in Midpoint ([3]; Table 2, flowering): 6
Reduction in Spread ([3]; Table 2, flowering): 9
Spread of BB ([3]; budbreak): 17
Advance in Midpoint ([3]; budbreak): 16
Reduction in Spread ([3]; budbreak): 32
frequency of laterals (in words) ([4]; Trial 6, Hawkes Bay, good winter chill): further increased
% Laterals ([4]; in vivo): 31.2%
KFWB ([4]; king flowers per winter bud): 2.61
SFWB ([4]; single flowers per winter bud): 1.8
% Budbreak ([4]; sprayed 11-Aug (30 DBNB)): 55.9%
budbreak response (in words) ([5]; Trial 2, FIG. 3, vs untreated): improved considerably
Spread of BB ([5]; budbreak): 19
Advance in Midpoint ([5]; budbreak, vs untreated): 12
Reduction in Spread ([5]; budbreak, vs untreated): 7
% Budbreak 28 DAA ([6]; 28 DAA): 14%
% Budbreak 39 DAA ([6]; 39 DAA): 39%
% Budbreak 47 DAA ([6]; 47 DAA): 34%
% Flowering 54 DAA ([6]; 54 DAA): 66%
% Fruit set 74 DAA ([6]; 74 DAA): 16%
change in Psa leaf spotting (ANOVA, in words) ([7]; HC after the first two applications, Example 8 at all application dates): significant increase
% Incidence ([7]; applied 15-Aug (46 DBNB)): 51.5 a %
% Incidence ([7]; applied 24-Aug (37 DBNB)): 21.7 b %
% Incidence ([7]; applied 30-Aug (31 DBNB)): 18.3 bc %
Leaf spotting score ([7]; applied 15-Aug (46 DBNB), 40 leaves rated on 1-5 scale): 1.15 a
Leaf spotting score ([7]; applied 24-Aug (37 DBNB)): 0.42 b
Leaf spotting score ([7]; applied 30-Aug (31 DBNB)): 0.31 bc

O=C(O)c1ccccc1O [Salicylic acid, salicylic acid]
Biodegradation [8]: rapid
Solubility in ethanol ([9]; 21° C.): 34.87 % w/w
Solubility in propanol ([9]; 21° C.): 27.36 % w/w
Solubility in benzene ([9]; 25° C.): 0.775 % w/w
